From patent publication US20100121048A1, “Cyclic Amine Compound and Use Thereof for the Prophylaxis or Treatment of Hypertension” (priority 2006, published 2010)

Target: T1, Human renin (Homo sapiens, UniProt P00797)
T1 construct: taking the active type (67-406); made in house; host or cells: FreeStyle 293-F cells (transient expression of pcDNA3.1(+)/hREN)
T1 sequence (P00797 67-406): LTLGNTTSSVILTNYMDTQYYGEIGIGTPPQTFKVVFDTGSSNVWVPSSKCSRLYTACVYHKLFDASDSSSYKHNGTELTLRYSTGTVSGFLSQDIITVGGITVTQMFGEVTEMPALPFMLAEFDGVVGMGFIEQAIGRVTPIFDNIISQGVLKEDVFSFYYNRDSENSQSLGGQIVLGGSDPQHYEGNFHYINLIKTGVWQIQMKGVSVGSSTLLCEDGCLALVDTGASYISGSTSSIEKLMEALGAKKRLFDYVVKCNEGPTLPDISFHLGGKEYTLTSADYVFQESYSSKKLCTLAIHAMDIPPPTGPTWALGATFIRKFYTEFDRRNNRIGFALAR
Assay: Measurement of renin inhibition value (human renin, FITC substrate peptide, capillary electrophoresis)
Format: biochemical
Conditions: active type renin (67-406), pH 6.0, 37° C., 30 min; for inhibition at 1 µM: test compound 1 μM, read-out: Human Renin Inhibitory Activity: inhibitory activity (%) at 1 μM; for inhibition at 10 µM: test compound 10 μM, read-out: Human Renin Inhibitory Activity: inhibitory activity (%) at 10 μM
Protocol: Human renin was obtained by expressing preprorenin (1-406) in an animal cell, treating the prorenin (24-406) contained in the culture supernatant with trypsin, and taking the active type (67-406).
A plasmid DNA to express human renin in HEK293 cells was prepared as follows. PCR was carried out using human renal cDNA (Clontech Laboratories, Inc., Marathon Ready cDNA) as the template and using two synthetic DNAs (5′-[…]-3′ AND 5′-[…]-3′), and the obtained fragments were cloned using a TOPO TA Cloning Kit (Invitrogen Corp.). The obtained fragments were subcloned into pcDNA3.1(+) that had been cleaved by HindIII and BamHI, thus to obtain a plasmid DNA for human preprorenin expression (PcDNA3.1(+)/hREN).
Expression of human preprorenin was conducted using FreeStyle 293 Expression System (Invitrogen Corp.). According to the manual accompanying the FreeStyle 293 Expression System, the plasmid DNA for human preprorenin expression (pcDNA3.1(+)/hREN) constructed in Experimental Example 1 was used to conduct transient expression by FreeStyle 293-F cells. After transfection of the plasmid DNA, the cells were subjected to shaking culture under the conditions of 37° C., 8% CO2 and 125 rpm for 3 days. A 600-ml aliquot of the culture solution was centrifuged at 2,000 rpm for 10 min to recover the culture supernatant containing prorenin (24-406). The culture supernatant was concentrated by ultrafiltration using a PM10 membrane (Millipore, Inc.) to a volume of about 50 ml, and then was dialyzed against 20 mM Tris-hydrochloric acid (pH 8.0). The dialyzate was fed to a 6-ml RESOURCE Q column (Amersham Biosciences, Inc.) equilibrated with 20 mM Tris-hydrochloric acid (pH 8.0) at a flow rate of 3 ml/min to adsorb the prorenin (24-406). After washing the column with the buffer solution used in the equilibration, elution was carried out by means of a linear concentration gradient of sodium chloride from 0 M to 0.4 M. The fraction containing prorenin (24-406) was collected and concentrated using Vivaspin 20 (molecular weight cut off 10,000; Vivascience, Inc.) to a volume of about 2 ml.
The concentrated liquid was subjected to gel filtration chromatography using HiLoad 16/60 Superdex 200 pg (Amersham Biosciences, Inc.) equilibrated with 20 mM Tris-hydrochloric acid (pH 8.0) containing 0.15 M sodium chloride, at a flow rate of 1.4 ml/min, thus to obtain 3.6 mg of purified prorenin (24-406).
To 3.6 mg of prorenin (24-406) was dissolved in 5.2 ml of 0.1 M Tris-hydrochloric acid (pH 8.0), 12 μg of trypsin (Roche Diagnostics Corp.) was added, and the mixture was allowed to react at 28° C. for 55 min to carry out activation of renin. After the reaction, 0.4 ml of immobilized trypsin inhibitor (Pierce Biotechnology, Inc.) was added to remove the trypsin used in the activation by adsorption. The reaction liquid containing the active type renin was concentrated using Vivaspin 20 (molcular weight cut off 10,000; Vivascience, Inc.), and was diluted with 20 mM Tris-hydrochloric acid (pH 8.0). The diluted liquid was fed to a TSKgel DEAE-5 PW column (7.5 mm I.D.×75 mm, Tosoh Corp.) equilibrated with 20 mM Tris-hydrochloric acid (pH 8.0) at a flow rate of 1 ml/min to adsorb the active type renin (67-406). The column was washed with the buffer solution used for the equilibration, and then elution was carried out by means of a sodium chloride linear concentration gradient from 0 M to 0.3 M, thus to obtain 1.5 mg of a purified product of active type renin (67-406).
5 μl each of the test compound (containing 50% DMSO) was added to each well of a 384-well black plate (Nalge Nunc International Co., Ltd.). Renin was diluted with a buffer solution for reaction (20 mM citric acid-sodium citrate (pH 6.0)) to a concentration of 0.5 μg/ml, and 35 μl each of the dilution was added to each well. […]

Row | inhibition at 1 µM | inhibition at 10 µM | SMILES
1 | 102% | 104% | COc1ccc(S(=O)(=O)N2CCCC(n3cnc(C(=O)N4CCNC[C@H]4Cc4ccccc4)c3-c3ccccc3)C2)cn1 (stereo partly drawn) [Example 477, (2R)-2-benzyl-1-[(1-{1-[(6-methoxypyridin-3-yl)sulfonyl]piperidin-3-yl}-5-phenyl-1H-imidazol-4-yl)carbonyl]piperazine]
2 | 97% | 99% | COc1nc(C(=O)N2CCNC[C@H]2Cc2ccccc2)c(-c2ccccc2)n1-c1ccccc1 [Example 475, (2R)-2-benzyl-1-[(2-methoxy-1,5-diphenyl-1H-imidazol-4-yl)carbonyl]piperazine]
3 | 105% | 107% | CCCCNc1ccccc1-n1ccc(C(=O)N2CCNCC2Cc2ccccc2)c1-c1ccccc1 (racemic) [Example 99, 2-(3-[(2-benzylpiperazin-1-yl)carbonyl]-2-phenyl-1H-pyrrol-1-yl}-N-butylaniline]
4 | 102% | 104% | Cc1cc(C(=O)N2CCNC[C@H]2Cc2ccccc2)c(-c2ccccc2)n1-c1cccc(N2CCOCC2)c1 [Example 105, 4-(3-(3-{[(2R)-2-benzylpiperazin-1-yl]carbonyl}-5-methyl-2-phenyl-1H-pyrrol-1-yl)phenyl]morpholine]
5 | 104% | 103% | O=C(c1ncn(-c2cccc(N3CCOCC3)c2)c1-c1ccccc1)N1CCNC[C@H]1Cc1ccccc1 [Example 56, 4-(3-(4-{[(2R)-2-benzylpiperazin-1-yl]carbonyl}-5-phenyl-1H-imidazol-1-yl)phenyl]morpholine]
6 | 99% | 99% | O=C(c1ncn(C2CCCN(S(=O)(=O)c3ccccc3)C2)c1-c1ccccc1)N1CCNC[C@H]1Cc1ccccc1 (stereo partly drawn) [Example 476, (2R)-2-benzyl-1-({5-phenyl-1-[1-(phenylsulfonyl)piperidin-3-yl]-1H-imidazol-4-yl}carbonyl)piperazine]
7 | 104% | 106% | COc1cccc(-n2c(C)cc(C(=O)N3CCNC[C@H]3Cc3ccccc3)c2-c2ccccc2)c1OC [Example 43, (2R)-2-benzyl-1-{[1-(2,3-dimethoxyphenyl)-5-methyl-2-phenyl-1H-pyrrol-3-yl]carbonyl}piperazine]
8 | 108% | 108% | COc1cccc(-n2cnc(C(=O)N3CCNC[C@H]3Cc3ccccc3)c2-c2ccccc2)c1OC [Example 57, (2R)-2-benzyl-1-([1-(2,3-dimethoxyphenyl)-5-phenyl-1H-imidazol-4-yl]carbonyl}piperazine]
9 | 100% | 102% | CS(=O)(=O)c1ccc(COC[C@@H]2CNCCN2C(=O)c2ncn(-c3cccc(N4CCOCC4)c3)c2-c2ccccc2)cc1 [Example 472, 4-[3-(4-{[(2S)-2-({[4-(methylsulfonyl)benzyl]oxy}methyl)piperazin-1-yl]carbonyl}-5-phenyl-1H-imidazol-1-yl)phenyl]morpholine]
10 | 99% | 101% | O=C(C[C@H](CCc1ccccc1)n1cnc(C(=O)N2CCNC[C@H]2Cc2ccccc2)c1-c1ccccc1)N1CCOCC1 [Example 478, 4-[(3S)-3-(4-{[(2R)-2-benzylpiperazin-1-yl]carbonyl}-5-phenyl-1H-imidazol-1-yl)-5-phenylpentanoyl]morpholine]
11 | 100% | 101% | O=C(O)c1ccc(C[C@@H]2CNCCN2C(=O)c2ncn(-c3cccc(N4CCOCC4)c3)c2-c2ccccc2)cc1 [Example 161, 4-[((2R)-1-{[1-(3-morpholinophenyl)-5-phenyl-1H-imidazol-4-yl]carbonyl}piperazin-2-yl)methyl]benzoic acid]
12 | 97% | 101% | O=C(c1ncn(C2Cc3ccccc3C2)c1-c1ccccc1)N1CCNC[C@H]1Cc1ccccc1 [Example 73, (2R)-2-benzyl-1-{[1-(2,3-dihydro-1H-inden-2-yl)-5-phenyl-1H-imidazol-4-yl]carbonyl}piperazine]
